Laboratory results published in article PMC3679022, “A Cancer Specific Cell-Penetrating Peptide, BR2, for the Efficient Delivery of an scFv into Cancer Cells” (PLoS ONE, 2013).

Test system: HCT116 cells
Test: Detection of apoptosis by annexin V-FITC / 7-AAD flow cytometry
Format: cell-based, human
Details: proteins 2 µM, staurosporine 0.5 µM, 24 h
Experimental: In addition, apoptotic cells were identified by staining with annexin V-FITC (150 ng/ml) and 7 amino-actinomycin D (7-AAD; BD Biosciences, San Diego, CA). 1×10^6 HCT116 cells were treated with PBS, staurosporine (0.5 µM), or peptide-fused scFvs (each, 2 µM) as described above. At the designated time, cells were washed twice with PBS (pH 7.4), harvested and resuspended in 500 µl of binding buffer supplemented with Annexin-V fluos (1∶100 diluted; BioBud, Seoul, Korea), and incubated for 15 min at 25°C in the dark. To detect necrosis, 7AAD was added prior to measurement. Samples were immediately subjected to FACS analysis with a FACSCalibur flow cytometer (FL1 and FL3) and WinMDI software (Joe Trotter, Scripps Research Institute). 1×10^4 cells per sample were analyzed by flow cytometry.
Figure 5 The BR2-anti-Ras scFv fusion protein promotes apoptosis by blocking Ras signaling in Ras-mutated HCT116 cells. […] The numbers on the top of the quadrants indicate the percentage of apoptotic and late apoptotic/necrotic cells counted from dot plots taken from one representative experiment, performed in triplicate. […] Changes in Ras activity level in HCT116 cells treated with anti-Ras scFv and BR2- and Tat-scFv fusion proteins (each, 1 and 2 µM) were determined by an ELISA-based activity assay; results are expressed as relative Ras activity (%). […]

## CN[C@@H]1C[C@H]2O[C@@](C)([C@@H]1OC)n1c3ccccc3c3c4c(c5c6ccccc6n2c5c31)C(=O)NC4 [staurosporine]
  cells in the apoptotic stage (apoptotic and late apoptotic/necrotic): 61.6%
